For orientation: IC50 means the midpoint of a concentration-inhibition curve.

In one test the target is T1, Human PKMYT1 (Homo sapiens, UniProt Q99640).
T1 construct: Human PKMYT1 75-362 was cloned as a TEV cleavable 6xHis fusion; 6xHis (TEV cleavable) (cleaved yes); made in house; host or cells: bacterial cells
T1 sequence (Q99640 75-362): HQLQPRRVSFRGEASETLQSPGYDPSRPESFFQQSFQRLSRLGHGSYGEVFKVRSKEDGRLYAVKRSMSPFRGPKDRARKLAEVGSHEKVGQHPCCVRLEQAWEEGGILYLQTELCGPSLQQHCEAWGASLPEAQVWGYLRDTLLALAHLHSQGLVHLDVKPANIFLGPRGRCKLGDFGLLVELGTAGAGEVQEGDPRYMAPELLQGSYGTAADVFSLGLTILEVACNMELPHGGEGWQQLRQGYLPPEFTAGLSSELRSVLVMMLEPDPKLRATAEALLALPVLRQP
Description: PKMYT1 biochemical ADP-Glo enzymatic assay. The conditions noted are these: ADP-Glo. The procedure, abridged:
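Measures inhibition of PKMYT1 autonomous ATP hydrolysis: bacterially expressed human enzyme (75-362, tag cleaved) at 15 nM with 500 µM ATP for 60 min at 26 °C, then ADP-Glo Max detection. IC50s accepted only when replicates agreed within 3-fold and curve r2 exceeded 0.9.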

For a further test, the target named is T2, WEE1 (Homo sapiens, UniProt P30291).
T2 construct: purchased Thermo Fisher PR7373A
T2 sequence (P30291 whole entry): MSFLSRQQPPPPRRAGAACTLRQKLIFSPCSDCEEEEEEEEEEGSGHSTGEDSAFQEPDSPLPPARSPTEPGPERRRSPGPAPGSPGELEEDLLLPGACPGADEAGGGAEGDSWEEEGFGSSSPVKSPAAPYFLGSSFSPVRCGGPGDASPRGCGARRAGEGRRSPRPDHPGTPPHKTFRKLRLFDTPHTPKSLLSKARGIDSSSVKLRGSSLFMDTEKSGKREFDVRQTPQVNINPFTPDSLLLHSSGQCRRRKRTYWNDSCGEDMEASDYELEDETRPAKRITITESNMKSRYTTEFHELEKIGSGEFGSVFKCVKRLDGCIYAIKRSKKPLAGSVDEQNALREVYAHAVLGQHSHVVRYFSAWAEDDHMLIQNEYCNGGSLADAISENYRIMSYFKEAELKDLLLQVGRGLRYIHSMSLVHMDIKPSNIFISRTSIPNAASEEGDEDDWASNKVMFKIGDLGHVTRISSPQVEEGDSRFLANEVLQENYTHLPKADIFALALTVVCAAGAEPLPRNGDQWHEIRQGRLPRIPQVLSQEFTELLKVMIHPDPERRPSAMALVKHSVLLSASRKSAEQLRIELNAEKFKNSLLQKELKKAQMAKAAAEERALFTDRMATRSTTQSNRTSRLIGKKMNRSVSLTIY
In words: Selectivity versus WEE1 assay (ADP-Glo enzymatic assay). In kind it is biochemical. The note with it: for IC50: ADP-Glo; for PKMYT1 vs. WEE1 selectivity: fold difference in selectivity for PKMYT1 over WEE1. The procedure, abridged: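 Same format as the PKMYT1 assay: WEE1 at 15 nM final with 30 µM ATP, 60 min at 26° C, ADP-Glo luminescence detection, IC50 by dose-response fitting.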
A general note: ADP-Glo turns the ADP formed in a reaction into a luminescent signal.

The mark [1] stands for this setting: 15 nM PKMYT1 kinase domain, 500 µM ATP, 60 minutes at 26° C., banded.
The mark [2] stands for this setting: 15 nM WEE1, 60 minutes at 26° C., banded.
[3] abbreviates: banded, ">N" = at least in this band but could be higher.
The mark [4] stands for this setting: PKMYT1 kinase domain 15 nM, banded values.

Structures can show the parent of a compound that is named as a salt. Where only a bound is given, the exact number is not on record here.

On to `Cc1ccc(O)c(C)c1NC(=O)c1cnc(Nc2ccn([C@@H]3CCN(C(=O)Cc4ccc(N(C)C)cc4)C3)n2)s1` [BAA-105, 2-[[1-[(3R)-1-[2-[4-(dimethylamino)phenyl]acetyl]pyrrolidin-3-yl]pyrazol-3-yl]amino]-N-(3-hydroxy-2,6-dimethyl-phenyl) thiazole-5-carboxamide], for which the IC50 was 0.05 to 1 µM against Human PKMYT1 (setting [1]) and above 11 µM against WEE1 (setting [2]). On WEE1 (setting [3]), the “PKMYT1 vs. WEE1 selectivity” value is recorded as “>Y (1000-5000 fold)”.

As to `Cc1ccc(O)c(C)c1NC(=O)c1cnc(Nc2cc3n(n2)CCN(C)C3=O)s1` [BAA-250, N-(3-hydroxy-2,6-dimethylphenyl)-2-((5-methyl-4-oxo-4,5,6,7-tetrahydropyrazolo[1,5-a]pyrazin-2-yl)amino)thiazole-5-carboxamide], the values for the IC50 against Human PKMYT1 (setting [1]) and at WEE1 (setting [2]) were below 0.05 µM and above 11 µM, respectively. Further, the “PKMYT1 vs. WEE1 selectivity” value on WEE1 (setting [3]) is reported as “X (100-<1000 fold)”.

Regarding `Cc1ccc(O)c(C)c1NC(=O)c1cnc(Nc2noc(C)c2C)s1` [BAA-439, 2-((4,5-dimethylisoxazol-3-yl)amino)-N-(3-hydroxy-2,6-dimethylphenyl)thiazole-5-carboxamide], the IC50 is below 0.05 µM on Human PKMYT1 (setting [4]) and 1 to 11 µM at WEE1 (WEE1 15 nM, banded values). Moreover, at WEE1 (banded), the “PKMYT1 vs. WEE1 selectivity” value is “X (100-<1000 fold)”.

As for `COCCNc1ncc(C(=O)Nc2c(C)ccc(O)c2C)s1` [BAA-063, N-(3-hydroxy-2,6-dimethyl-phenyl)-2-(2-methoxyethylamino)thiazole-5-carboxamide], the IC50 is 1 to 11 µM at Human PKMYT1 (setting [1]) and above 11 µM on WEE1 (setting [2]). At WEE1 (setting [3]), the “PKMYT1 vs. WEE1 selectivity” value is on record as “>W (10-<100 fold)”.

Regarding `Cc1ccc(O)c(C)c1NC(=O)c1cnc(Nc2nn(C)c3cccc(F)c23)s1` [BAA-444, 2-((4-fluoro-1-methyl-1H-indazol-3-yl)amino)-N-(3-hydroxy-2,6-dimethylphenyl)thiazole-5-carboxamide], the IC50 is below 0.05 µM on Human PKMYT1 (setting [4]) and above 11 µM against WEE1 (WEE1 15 nM, banded values). Moreover, the “PKMYT1 vs. WEE1 selectivity” value at WEE1 (banded) was “X (100-<1000 fold)”.

Regarding `Cc1ccc(O)c(C)c1NC(=O)c1cnc(Nc2cc(C#N)n(C)n2)s1` [BAA-505, 2-((5-cyano-1-methyl-1H-pyrazol-3-yl)amino)-N-(3-hydroxy-2,6-dimethylphenyl)thiazole-5-carboxamide], the IC50 lay within 0.05 to 1 µM against Human PKMYT1 (setting [4]) and 1 to 11 µM at WEE1 (WEE1 15 nM, banded values). Moreover, at WEE1 (banded), the “PKMYT1 vs. WEE1 selectivity” value is reported as “W (10-<100 fold)”.

For the compound `Cc1nnc(Nc2ncc(C(=O)Nc3c(C)ccc(O)c3C)s2)s1` [BAA-263, N-(3-hydroxy-2,6-dimethylphenyl)-2-((5-methyl-1,3,4-thiadiazol-2-yl)amino)thiazole-5-carboxamide], the IC50 is 0.05 to 1 µM against Human PKMYT1 (setting [1]) and above 11 µM on WEE1 (setting [2]). Besides, the “PKMYT1 vs. WEE1 selectivity” value at WEE1 (setting [3]) was “X (100-<1000 fold)”.

On to `COCCn1nc(Nc2ncc(C(=O)Nc3c(C)ccc(O)c3C)s2)cc1C` [BAA-255, N-(3-hydroxy-2,6-dimethylphenyl)-2-((1-(2-methoxyethyl)-5-methyl-1H-pyrazol-3-yl)amino)thiazole-5-carboxamide], for which the IC50 is 0.05 to 1 µM at Human PKMYT1 (setting [1]) and above 11 µM at WEE1 (setting [2]). In addition, on WEE1 (setting [3]), the “PKMYT1 vs. WEE1 selectivity” value was “X (100-<1000 fold)”.

In the case of `Cc1ccc(O)c(C)c1NC(=O)c1cnc(Nc2ccn(CC(=O)NC[C@@H](C)O)n2)s1` [BAA-170, N-(3-hydroxy-2,6-dimethyl-phenyl)-2-[[1-[2-[[(2R)-2-hydroxypropyl]amino]-2-oxo-ethyl]pyrazol-3-yl]amino]thiazole-5-carboxamide], the IC50 was below 0.05 µM on Human PKMYT1 (setting [1]) and above 11 µM on WEE1 (setting [2]). For the same compound, the “PKMYT1 vs. WEE1 selectivity” value on WEE1 (setting [3]) was “Y (1000-5000 fold)”.

Regarding `Cc1ccnc(Nc2ncc(C(=O)Nc3c(C)ccc(O)c3C)s2)n1` [BAA-567, N-(3-hydroxy-2,6-dimethylphenyl)-2-((4-methylpyrimidin-2-yl)amino)thiazole-5-carboxamide], the IC50 against Human PKMYT1 (setting [4]) was below 0.05 µM; against WEE1 (WEE1 15 nM, banded values), above 11 µM. For the same compound, the “PKMYT1 vs. WEE1 selectivity” value on WEE1 (banded) is recorded as “Y (1000-5000 fold)”.

On to `Cc1ccc(O)c(C)c1NC(=O)c1cnc(Nc2nccc(-c3ccc(Cl)cc3)n2)s1` [BAA-293, 2-((4-(4-chlorophenyl)pyrimidin-2-yl)amino)-N-(3-hydroxy-2,6-dimethylphenyl)thiazole-5-carboxamide], for which the results for the IC50 against Human PKMYT1 (setting [1]) and against WEE1 (setting [2]) were below 0.05 µM and above 11 µM, respectively. On WEE1 (setting [3]), the “PKMYT1 vs. WEE1 selectivity” value was “Y (1000-5000 fold)”.

Consider `Cc1ccc(O)c(C)c1NC(=O)c1cnc(Nc2ccn(CC(=O)N3CCN(C4CCC4)CC3)n2)s1` [BAA-185], for which the results for the IC50 on Human PKMYT1 (setting [1]) and on WEE1 (setting [2]) were 0.05 to 1 µM and above 11 µM, respectively. The “PKMYT1 vs. WEE1 selectivity” value on WEE1 (setting [3]) is listed as “>Y (1000-5000 fold)”.

Regarding `Cc1c(O)ccc(Br)c1NC(=O)c1cnc(Nc2ccn(C)n2)s1` [BAA-498, N-(6-bromo-3-hydroxy-2-methylphenyl)-2-((1-methyl-1H-pyrazol-3-yl)amino)thiazole-5-carboxamide], the IC50 at Human PKMYT1 (setting [4]) lay within 0.05 to 1 µM; on WEE1 (WEE1 15 nM, banded values), 1 to 11 µM. Besides, the “PKMYT1 vs. WEE1 selectivity” value at WEE1 (banded) is “W (10-<100 fold)”.

As for `Cc1ccc(O)c(C)c1NC(=O)c1cnc(Nc2ccn(CC(=O)NCCN3CCCCC3)n2)s1` [BAA-168, N-(3-hydroxy-2,6-dimethyl-phenyl)-2-[[1-[2-oxo-2-[2-(1-piperidyl)ethylamino]ethyl]pyrazol-3-yl]amino]thiazole-5-carboxamide (hydrochloride)], the IC50 was 0.05 to 1 µM at Human PKMYT1 (setting [1]) and above 11 µM against WEE1 (setting [2]). In addition, the “PKMYT1 vs. WEE1 selectivity” value on WEE1 (setting [3]) is on record as “W (10-<100 fold)”.

As for `Cc1ccc(O)c(C)c1NC(=O)c1cnc(Nc2nn(C)c3cc(Br)ccc23)s1` [BAA-267, 2-((6-bromo-1-methyl-1H-indazol-3-yl)amino)-N-(3-hydroxy-2,6-dimethylphenyl)thiazole-5-carboxamide], the IC50 against Human PKMYT1 (setting [1]) is 0.05 to 1 µM; against WEE1 (setting [2]), above 11 µM. For the same compound, the “PKMYT1 vs. WEE1 selectivity” value at WEE1 (setting [3]) is “X (100-<1000 fold)”.

For the compound `Cc1ccc(O)c(C)c1NC(=O)c1cnc(NCCO)s1` [BAA-062, N-(3-hydroxy-2,6-dimethyl-phenyl)-2-(2-hydroxyethylamino)thiazole-5-carboxamide], the IC50 at Human PKMYT1 (setting [1]) is 1 to 11 µM; against WEE1 (setting [2]), above 11 µM. Moreover, at WEE1 (setting [3]), the “PKMYT1 vs. WEE1 selectivity” value is given as “>W (10-<100 fold)”.

On to `CCN(CC)C(=O)Cn1cc(C)c(Nc2ncc(C(=O)Nc3c(C)cc(Br)c(O)c3C)s2)n1` [BAA-608, N-(4-bromo-3-hydroxy-2,6-dimethylphenyl)-2-((1-(2-(diethylamino)-2-oxoethyl)-4-methyl-1H-pyrazol-3-yl)amino)thiazole-5-carboxamide], for which the IC50 is 0.05 to 1 µM at Human PKMYT1 (setting [4]) and above 11 µM at WEE1 (WEE1 15 nM, banded values). Also, the “PKMYT1 vs. WEE1 selectivity” value at WEE1 (banded) is given as “X (100-<1000 fold)”.

For `Cc1ccc(O)c(C)c1NC(=O)c1cnc(Nc2ccc(C#N)c(F)c2)s1` [BAA-283, 2-((4-cyano-3-fluorophenyl)amino)-N-(3-hydroxy-2,6-dimethylphenyl)thiazole-5-carboxamide], the IC50 against Human PKMYT1 (setting [1]) is 1 to 11 µM; on WEE1 (setting [2]) it was above 11 µM. The “PKMYT1 vs. WEE1 selectivity” value at WEE1 (setting [3]) is “W (10-<100 fold)”.

As to `Cc1ccc(O)c(C)c1NC(=O)c1cnc(NCc2ccn(C)n2)s1` [BAA-348, N-(3-hydroxy-2,6-dimethylphenyl)-2-(((1-methyl-1H-pyrazol-3-yl)methyl)amino) thiazole-5-carboxamide], the values for the IC50 against Human PKMYT1 (setting [1]) and at WEE1 (setting [2]) were 0.05 to 1 µM and above 11 µM, respectively. In addition, the “PKMYT1 vs. WEE1 selectivity” value at WEE1 (setting [3]) is recorded as “X (100-<1000 fold)”.

As for `COCCNC(=O)Cn1ccc(Nc2ncc(C(=O)Nc3c(C)ccc(O)c3C)s2)n1` [BAA-166, N-(3-hydroxy-2,6-dimethyl-phenyl)-2-[[1-[2-(2-methoxyethylamino)-2-oxo-ethyl]pyrazol-3-yl]amino]thiazole-5-carboxamide], the results for the IC50 against Human PKMYT1 (setting [1]) and against WEE1 (setting [2]) were below 0.05 µM and above 11 µM, respectively. In addition, the “PKMYT1 vs. WEE1 selectivity” value on WEE1 (setting [3]) was “Y (1000-5000 fold)”.

With `Cc1ccc(O)c(C)c1NC(=O)c1cnc(Nc2ccn(CC(=O)N3CCN(S(C)(=O)=O)CC3)n2)s1` [BAA-142], the values for the IC50 at Human PKMYT1 (setting [1]) and against WEE1 (setting [2]) were below 0.05 µM and above 11 µM, respectively. The “PKMYT1 vs. WEE1 selectivity” value on WEE1 (setting [3]) is on record as “X (100-<1000 fold)”.

`Cc1ccc(O)c(C)c1NC(=O)c1cnc(Nc2cnn(C)c2)s1` [BAA-536, N-(3-hydroxy-2,6-dimethylphenyl)-2-((1-methyl-1H-pyrazol-4-yl)amino)thiazole-5-carboxamide hydrochloride]: the IC50 against Human PKMYT1 (setting [4]) was in the range of 0.05 to 1 µM; against WEE1 (WEE1 15 nM, banded values), 1 to 11 µM. Further, at WEE1 (banded), the “PKMYT1 vs. WEE1 selectivity” value was “X (100-<1000 fold)”.

`Cc1ccc(O)c(C)c1NC(=O)c1cnc(Nc2ccc(F)cc2F)s1` [BAA-277, 2-((2,4-difluorophenyl)amino)-N-(3-hydroxy-2,6-dimethylphenyl)thiazole-5-carboxamide]: the IC50 was 0.05 to 1 µM against Human PKMYT1 (setting [1]) and above 11 µM against WEE1 (setting [2]). For the same compound, the “PKMYT1 vs. WEE1 selectivity” value on WEE1 (setting [3]) is listed as “X (100-<1000 fold)”.
